Source: the PolyMetriX glass transition set

| Compound | glass transition temperature [°C] |
| --- | --- |
| *c1ccc2c(c1)C(=O)N(c1cccc(P(=O)(c3ccc(C(F)(F)F)cc3)c3cccc(N4C(=O)c5ccc(C(*)(C(F)(F)F)C(F)(F)F)cc5C4=O)c3)c1)C2=O (repeat unit) | 260.00 |
| *CCN(CCOC(=O)NCC1(C)CC(NC(=O)O*)CC(C)(C)C1)c1ccc(/N=N/c2ccc(C#N)cc2)cc1 (repeat unit) | 136.00 |
| *CCCCCCCCOc1c(OC)cc(/C=C/c2ccc(/C=C/c3ccc(/C=C/c4cc(OC)c(O*)c(OC)c4)cc3)cc2)cc1OC (repeat unit) | 78.70 |
| *O[Si](C)(C)O[Si](C)(C)c1ccc([Si](*)(C)C)cc1 (repeat unit) | -62.50 |
| *c1ccc(-c2ccc(-c3ccc(-c4ccc(-c5ccc(*)n5CCCCCCCCCCCC)s4)s3)s2)s1 (repeat unit) | 54.00 |
| *c1ccc(Oc2ccc(Oc3ccc(N4C(=O)c5cccc(Oc6c(C)cc(Cc7cc(C)c(Oc8cccc9c8C(=O)N(*)C9=O)c(C)c7)cc6C)c5C4=O)c(C)c3)cc2)cc1C (repeat unit) | 238.00 |
| *CC(*)C(=O)OCC(C)O (repeat unit) | -7.00 |
| *CC(*)(C)C(=O)OCCCCCCN(C)c1ccc(N(C)C)cc1 (repeat unit) | 8.50 |
| *CC(CC)(CO*)COC(=O)C(=C)C (repeat unit) | 40.00 |
| *c1ccc(Oc2ccc(-c3nc4ccc(Oc5ccc6nc(*)c(-c7ccccc7)c(-c7ccccc7)c6c5)cc4c(-c4ccccc4)c3-c3ccccc3)cc2)cc1 (repeat unit) | 305.00 |
| *CC(CCCCCCCC)COC(=O)NC(=O)c1cccc(C(=O)NC(=O)O*)c1 (repeat unit) | 65.00 |
| *Cc1cc2cc(C(=O)Nc3ccc(NC(=O)c4cc5cc(*)c(OC(=O)COc6ccc7ccc(=O)oc7c6)cc5oc4=O)cc3)c(=O)oc2cc1OC(=O)COc1ccc2ccc(=O)oc2c1 (repeat unit) | 252.00 |
| *CC(COC(F)(C(F)(F)F)C(F)(F)F)O* (repeat unit) | -43.00 |
| *Nc1ccc(Cc2ccc(NC(=O)c3ccc(C(*)=O)cc3)cc2)cc1 (repeat unit) | 294.50 |
| *Cc1cc2cc(C(=O)Nc3ccc(C(c4ccc(NC(=O)c5cc6cc(*)c(OC(=O)COc7ccc8ccc(=O)oc8c7)cc6oc5=O)cc4)(C(F)(F)F)C(F)(F)F)cc3)c(=O)oc2cc1OC(=O)COc1ccc2ccc(=O)oc2c1 (repeat unit) | 257.00 |
| *CCCOC(=O)CCCC(=O)O* (repeat unit) | -33.00 |
| *c1cccc(OCCCCOc2cccc(N3C(=O)c4ccc(-c5ccc6c(c5)C(=O)N(*)C6=O)cc4C3=O)c2)c1 (repeat unit) | 175.00 |
| *CC(*)(C)C(=O)OCCCCCCCCCCCCCCC(=O)NC1OC(CO)C(OC2OC(CO)C(O)C(O)C2O)C(O)C1O (repeat unit) | 133.00 |
| *c1ccc(-c2ccc(-c3ccc(-c4ccc([Si](*)(CCCC)CCCC)s4)s3)s2)s1 (repeat unit) | 1.00 |
| *CCCCCC(*)CCCC (repeat unit) | -69.00 |
| *CCC[Si](*)(C[Si](C)(C)c1ccccc1)C[Si](C)(C)c1ccccc1 (repeat unit) | -36.00 |
| *c1ccc(C(C#N)(C(=O)OC)C(*)(C#N)C(=O)OC)cc1 (repeat unit) | 108.00 |
| *c1ccc(C(c2ccccc2)c2ccc(N(*)c3ccc(C)cc3)cc2)cc1 (repeat unit) | 199.00 |
| *c1cc(CCOc2ccc(/N=N/c3ccc(C#N)cc3)cc2)c(*)s1 (repeat unit) | 73.00 |
| *Nc1ccc(NC(=O)c2cc(-c3ccc(C(=O)O)c(C(*)=O)c3)ccc2C(=O)O)cc1 (repeat unit) | 248.40 |
| *C(=O)c1ccc2c(c1)C(=O)N(c1ccc(N(c3ccccc3)c3ccc(N4C(=O)c5ccc(*)cc5C4=O)cc3)cc1)C2=O (repeat unit) | 270.00 |
